In the NIST ThermoML archive (doi:10.1021/je900596d):
± gives the expanded uncertainty stated by the source.

Details: 343.26 K, Fluid (supercritical or subcritical phases), Vibrating tube method

With `FC(F)=C(F)C(F)(F)F` [hexafluoropropene] the mass density (32 kPa) was 1.75 ± 0.03 kg/m3, the mass density (33.6 kPa) was 1.83 ± 0.03 kg/m3 and the mass density (36.6 kPa) was 1.97 ± 0.03 kg/m3. It also gave a mass density (38.2 kPa) of 2.07 ± 0.03 kg/m3, a mass density (39.9 kPa) of 2.11 ± 0.03 kg/m3 and a mass density (43.2 kPa) of 2.31 ± 0.03 kg/m3. For the same compound, the mass density (45.9 kPa) was 2.54 ± 0.03 kg/m3, the mass density (50.6 kPa) was 2.72 ± 0.03 kg/m3 and the mass density (55.4 kPa) was 3 ± 0.03 kg/m3. It also gave a mass density (59.9 kPa) of 3.25 ± 0.03 kg/m3, a mass density (63.1 kPa) of 3.46 ± 0.03 kg/m3 and a mass density (66.1 kPa) of 3.7 ± 0.03 kg/m3. The mass density (70.8 kPa) was 3.87 ± 0.03 kg/m3, the mass density (72.4 kPa) was 3.95 ± 0.03 kg/m3 and the mass density (74.2 kPa) was 4.04 ± 0.03 kg/m3. For the same compound, the mass density (77.2 kPa) was 4.21 ± 0.03 kg/m3, the mass density (80.1 kPa) was 4.42 ± 0.03 kg/m3 and the mass density (81.8 kPa) was 4.49 ± 0.03 kg/m3. It also gave a mass density (83.4 kPa) of 4.54 ± 0.03 kg/m3, a mass density (86.6 kPa) of 4.74 ± 0.03 kg/m3 and a mass density (89.9 kPa) of 4.91 ± 0.03 kg/m3. It also gave a mass density (94.8 kPa) of 5.2 ± 0.03 kg/m3, a mass density (97.7 kPa) of 5.42 ± 0.03 kg/m3 and a mass density (104 kPa) of 5.73 ± 0.03 kg/m3. It also gave a mass density (110.1 kPa) of 6.1 ± 0.03 kg/m3, a mass density (116.3 kPa) of 6.4 ± 0.03 kg/m3 and a mass density (122.7 kPa) of 6.8 ± 0.03 kg/m3. For the same compound, the mass density (129.3 kPa) was 7.14 ± 0.03 kg/m3, the mass density (135.5 kPa) was 7.51 ± 0.03 kg/m3 and the mass density (141.7 kPa) was 7.92 ± 0.04 kg/m3. The mass density (148.2 kPa) was 8.27 ± 0.04 kg/m3, the mass density (154.4 kPa) was 8.6 ± 0.04 kg/m3 and the mass density (160.9 kPa) was 8.89 ± 0.04 kg/m3. For the same compound, the mass density (170.1 kPa) was 9.39 ± 0.04 kg/m3, the mass density (176.8 kPa) was 9.8 ± 0.04 kg/m3 and the mass density (183.2 kPa) was 10.15 ± 0.04 kg/m3. It also gave a mass density (189.6 kPa) of 10.49 ± 0.04 kg/m3, a mass density (200.5 kPa) of 11.16 ± 0.04 kg/m3 and a mass density (213.3 kPa) of 11.94 ± 0.04 kg/m3. The mass density (225.8 kPa) was 12.7 ± 0.04 kg/m3, the mass density (237.9 kPa) was 13.34 ± 0.04 kg/m3 and the mass density (250.5 kPa) was 14.05 ± 0.04 kg/m3. It also gave a mass density (262.7 kPa) of 14.74 ± 0.04 kg/m3, a mass density (274 kPa) of 15.32 ± 0.04 kg/m3 and a mass density (286 kPa) of 16.09 ± 0.04 kg/m3. It also gave a mass density (298.3 kPa) of 16.8 ± 0.04 kg/m3, a mass density (311.2 kPa) of 17.55 ± 0.04 kg/m3 and a mass density (323.1 kPa) of 18.22 ± 0.04 kg/m3. It also gave a mass density (335.5 kPa) of 18.98 ± 0.04 kg/m3, a mass density (347.7 kPa) of 19.66 ± 0.04 kg/m3 and a mass density (360 kPa) of 20.46 ± 0.04 kg/m3. For the same compound, the mass density (372.1 kPa) was 21.09 ± 0.04 kg/m3, the mass density (384.1 kPa) was 21.84 ± 0.05 kg/m3 and the mass density (396.5 kPa) was 22.56 ± 0.05 kg/m3. It also gave a mass density (408.2 kPa) of 23.28 ± 0.05 kg/m3, a mass density (420.5 kPa) of 24.04 ± 0.05 kg/m3 and a mass density (431.3 kPa) of 24.66 ± 0.05 kg/m3. It also gave a mass density (443.3 kPa) of 25.35 ± 0.05 kg/m3, a mass density (455.1 kPa) of 26 ± 0.05 kg/m3 and a mass density (466.9 kPa) of 26.77 ± 0.05 kg/m3. For the same compound, the mass density (478.8 kPa) was 27.49 ± 0.05 kg/m3, the mass density (490.9 kPa) was 28.19 ± 0.05 kg/m3 and the mass density (507.3 kPa) was 29.18 ± 0.05 kg/m3. The mass density (521.6 kPa) was 30.11 ± 0.05 kg/m3, the mass density (535.5 kPa) was 30.9 ± 0.05 kg/m3 and the mass density (548.6 kPa) was 31.65 ± 0.06 kg/m3. For the same compound, the mass density (561.3 kPa) was 32.53 ± 0.06 kg/m3.
